Results taken from the supplement of paper PMC10307832.

Tests used:
Assay in all cases: relative viability (nuclei count vs DMSO), 5 days (fraction); higher = more cells survive
Sulindac + Trametinib = compound: CC1=C(CC(=O)O)c2cc(F)ccc2/C1=C\c1ccc([S+](C)[O-])cc1 [Sulindac] + CC(=O)Nc1cccc(-n2c(=O)n(C3CC3)c(=O)c3c(Nc4ccc(I)cc4F)n(C)c(=O)c(C)c32)c1 [Trametinib] (partner 0.02 µM)
Summary of the method: (§1)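 For relative viability, nuclei counts in treated wells were divided by those in vehicle wells. Lung cancer cell lines had been pin-tool dosed in 1536-well plates the day after seeding and cultured for 5 days, then fixed and stained in one step (final 0.05% Triton X-100, 1% formaldehyde, 1 ug/ml Hoechst) and imaged at 4×. Doses were one drug alone or a fixed anchor-drug dose plus five library-drug doses (not always all listed) in √10 steps, and values are duplicate-plate medians.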

Sulindac + Pemetrexed = compound: CC1=C(CC(=O)O)c2cc(F)ccc2/C1=C\c1ccc([S+](C)[O-])cc1 [Sulindac] + Nc1nc2[nH]cc(CCc3ccc(C(=O)N[C@@H](CCC(=O)O)C(=O)O)cc3)c2c(=O)[nH]1 [Pemetrexed] (partner 0.2 µM)
Summary of the method: as §1

[1] = compound: O=c1[nH]cc(F)c(=O)[nH]1 [5-Fluorouracil] + Cc1nc(NC(=O)N2CCC[C@H]2C(N)=O)sc1-c1ccnc(C(C)(C)C(F)(F)F)c1 [Alpelisib] (partner 2 µM)
Summary of the method: as §1

[2] = compound: O=c1[nH]cc(F)c(=O)[nH]1 [5-Fluorouracil] + Nc1ncn([C@H]2C[C@H](O)[C@@H](CO)O2)c(=O)n1 [Decitabine] (partner 2 µM)
Summary of the method: as §1

| Cell Line | relative viability (Sulindac + Trametinib; first compound 0.08 µM) | relative viability (Sulindac + Trametinib; first compound 0.253 µM) | relative viability (Sulindac + Trametinib; first compound 0.8 µM) | relative viability (Sulindac + Trametinib; first compound 2.53 µM) | relative viability (Sulindac + Trametinib; first compound 8 µM) | relative viability (Sulindac + Pemetrexed; first compound 0.08 µM) | relative viability (Sulindac + Pemetrexed; first compound 0.253 µM) | relative viability (Sulindac + Pemetrexed; first compound 0.8 µM) | relative viability (Sulindac + Pemetrexed; first compound 2.53 µM) | relative viability (Sulindac + Pemetrexed; first compound 8 µM) | relative viability ([1]; first compound 0.02 µM) | relative viability ([1]; first compound 0.2 µM) | relative viability ([1]; first compound 0.6325 µM) | relative viability ([1]; first compound 2 µM) | relative viability ([2]; first compound 0.02 µM) | relative viability ([2]; first compound 0.2 µM) | relative viability ([2]; first compound 0.6325 µM) | relative viability ([2]; first compound 2 µM) |
| --- | --- | --- | --- | --- | --- | --- | --- | --- | --- | --- | --- | --- | --- | --- | --- | --- | --- | --- |
| PC-14 | 0.908 | 0.772 | 0.745 | 0.779 | 1.01 | 0.122 | 0.118 | 0.162 | 0.13 | 0.147 | 1.02 | 0.962 | 0.748 | 0.424 | 0.265 | 0.229 | 0.25 | 0.275 |
| NCI-H1915 | 0.303 | 0.307 | 0.246 | 0.302 | 0.303 | 0.602 | 0.53 | 0.492 | 0.475 | 0.53 | 1.04 | 1.04 | 0.963 | 0.83 | 0.248 | 0.272 | 0.278 | 0.256 |
| COR-L23 | 0.653 | 0.671 | 0.357 | 0.548 | 0.725 | 0.177 | 0.202 | 0.206 | 0.192 | 0.204 | 0.862 | 0.661 | 0.491 | 0.209 | 0.452 | 0.449 | 0.412 | 0.254 |
| HOP-62 | 0.411 | 0.404 | 0.34 | 0.411 | 0.388 | 0.412 | 0.27 | 0.31 | 0.258 | 0.389 | 0.835 | 1.03 | 0.844 | 0.754 | 0.247 | 0.211 | 0.256 | 0.246 |
| NCI-H1975 | 0.382 | 0.38 | 0.36 | 0.356 | 0.367 | 0.316 | 0.297 | 0.245 | 0.304 | 0.313 | 0.57 | 0.723 | 0.465 | 0.293 | 0.449 | 0.381 | 0.28 | 0.206 |
| BEN | 0.975 | 1.03 | 0.934 | 1.02 | 1.13 | 0.816 | 0.757 | 0.698 | 0.706 | 0.998 | 0.987 | 0.873 | 0.657 | 0.692 | 0.743 | 0.743 | 0.746 | 0.681 |
| NCI-H1437 | 0.644 | 0.568 | 0.461 | 0.515 | 0.525 | 0.375 | 0.321 | 0.326 | 0.315 | 0.413 |  | 0.226 | 0.171 | 0.111 | 0.522 | 0.308 | 0.28 | 0.237 |
| EMC-BAC-2 | 1.03 | 0.917 | 0.794 | 0.794 | 0.994 | 0.429 | 0.441 | 0.408 | 0.451 | 0.466 | 0.733 | 0.773 | 0.801 | 0.768 | 1.01 | 1.08 | 0.97 | 1.01 |
| SW 1573 | 0.601 | 0.645 | 0.496 | 0.371 | 0.75 | 0.91 | 0.887 | 0.737 | 0.754 | 0.9 | 0.705 | 0.877 | 0.867 | 0.507 | 0.619 | 0.505 | 0.53 | 0.502 |
| NCI-H661 | 0.635 | 0.608 | 0.487 | 0.669 | 0.654 | 0.953 | 0.931 | 0.869 | 0.922 | 0.981 | 0.598 | 1.12 | 0.597 | 0.612 | 0.574 | 0.596 | 0.495 | 0.551 |
| LXF-289 | 0.745 | 0.713 | 0.666 | 0.695 | 0.686 | 0.99 | 0.876 | 0.806 | 0.9 | 0.942 | 1.03 | 0.595 | 0.353 | 0.286 | 0.384 | 0.402 | 0.34 | 0.323 |
| LOU-NH91 | 0.771 | 0.826 | 0.687 | 0.785 | 0.836 | 0.305 | 0.358 | 0.413 | 0.423 | 0.374 | 0.679 | 0.706 | 0.57 | 0.466 | 0.873 | 0.874 | 0.838 | 0.534 |
| NCI-H2347 | 0.279 | 0.272 | 0.297 | 0.258 | 0.271 | 0.429 | 0.394 |  | 0.461 | 0.414 | 1.09 | 0.709 | 0.457 | 0.447 | 0.587 | 0.618 | 0.441 | 0.407 |
| NCI-H2009 | 0.256 | 0.266 | 0.283 | 0.245 | 0.33 | 1.07 | 1.02 | 1.03 | 1.01 | 1.25 | 1.17 | 1.15 | 0.937 | 0.607 | 0.384 | 0.404 | 0.372 | 0.425 |
| HCC-827 | 0.525 | 0.571 | 0.526 | 0.489 | 0.506 | 0.286 | 0.282 | 0.249 | 0.241 | 0.26 | 0.777 | 0.888 | 0.681 | 0.451 | 0.298 | 0.431 | 0.36 | 0.297 |
| PC-3 [JPC-3] | 0.668 | 0.659 | 0.701 | 0.695 | 0.725 | 1.07 | 1.04 | 0.738 | 1.07 | 1.19 | 0.913 | 1.04 | 0.838 | 0.708 | 0.851 | 0.873 | 0.779 | 0.75 |
| NCI-H23 | 0.39 | 0.403 | 0.333 | 0.364 | 0.356 | 0.768 | 0.683 | 0.237 | 0.7 | 0.692 | 0.687 | 0.728 | 0.425 | 0.312 | 0.33 | 0.295 | 0.367 | 0.279 |
| NCI-H838 | 0.608 | 0.559 | 0.456 | 0.527 | 0.584 | 0.248 | 0.255 | 0.233 | 0.24 | 0.258 | 0.874 | 0.882 | 0.484 | 0.29 | 0.48 | 0.447 | 0.359 | 0.291 |
